Reference: US8263628B2, “Fluorine-containing organosulfur compound and pesticidal composition thereof” (Sumitomo Chemical Company, Limited., priority 2007, dated 2012)

Columns and labels:
[1] = test system: Culex pipiens pallens; test: Water treatment test against Culex pipiens pallens last instar larvae; type: in vivo; conditions: 24 h; active ingredient 3.5 ppm in water; 20 Culex pipiens pallens last instar larvae; after one day; read-out: mortality rate
Procedure: Each of the formulations of the present compounds (1), (3), (4), (6), (8), (9), (10), (14) and (15) obtained in Formulation Example 20 was diluted so that the concentration of the present compound was 500 ppm to prepare a test solution.
To 100 mL of ion-exchange water was added 0.7 mL of the above test solution (concentration of an active ingredient: 3.5 ppm). In the solution, 20 Culex pipiens pallens last instar larvae were released. After one day, life and death of Culex pipiens last instar larvae were examined and the mortality rate was determined.

[2] = test system: Musca domestica; test: Filter paper/sucrose bait test against female Musca domestica; type: in vivo; conditions: 500 ppm test solution, 0.7 mL on filter paper; 10 female Musca domestica; after 24 hours; read-out: mortality rate
Procedure: Each of the formulations of the present compounds (1), (2), (3), (4), (5), (6), (8), (9), (10), (12), (14) and (15) obtained in Formulation Example 20 was diluted so that the concentration of the present compound was 500 ppm to prepare a test solution.
On the bottom of a polyethylene cup having a diameter of 5.5 cm, a filter paper having the same size was laid and 0.7 mL of the test solution was dropped on the filter paper, and then 30 mg of a sucrose as a bait was uniformly placed. In the polyethylene cup, 10 female Musca domesticas were released and the cup was lidded. After 24 hours, life and death of Musca domesticas were examined and the mortality rate was determined.

SMILES	mortality at 3.5 ppm [1]	mortality at 500 ppm [2]
CC(c1ccc(C(F)(F)F)nc1)S(=O)(=O)CCC(F)(F)F (stereo not drawn) [present compound (4), 2-trifluoromethyl-5-[1-(3,3,3-trifluoropropanesulfonyl)ethyl]pyridine]	≥ 95%	≥ 90%
O=S(=O)(CCC(F)(F)F)C(Cl)c1ccc(C(F)(F)F)cn1 (stereo not drawn) [present compound (15), 2-[chloro-(3,3,3-trifluoropropanesulfonyl)methyl]-5-trifluoromethylpyridine]	≥ 95%	≥ 90%
COc1ncc(CSCCC(F)(F)F)cn1 [present compound (12), 2-methoxy-5-(3,3,3-trifluoropropylsulfanylmethyl)pyrimidine]	–	≥ 90%
O=S(=O)(CCC(F)(F)F)Cc1ccc(C(F)(F)F)nc1 [present compound (2), 2-trifluoromethyl-5-(3,3,3-trifluoropropanesulfonylmethyl)pyridine]	–	≥ 90%
CC(SCCC(F)(F)F)c1ccc(C(F)(F)F)cn1 (stereo not drawn) [present compound (8), 5-trifluoromethyl-2-[1-(3,3,3-trifluoropropylsulfanyl)ethyl]pyridine]	≥ 95%	≥ 90%
FC(F)(F)CCSCc1ccc(C(F)(F)F)nc1 [present compound (1), 2-trifluoromethyl-5-(3,3,3-trifluoropropylsulfanylmethyl)pyridine]	≥ 95%	≥ 90%
CC(SCCC(F)(F)F)c1ccc(C(F)(F)F)nc1 (stereo not drawn) [present compound (3), 2-trifluoromethyl-5-[1-(3,3,3-trifluoropropylsulfanyl)ethyl]pyridine]	≥ 95%	≥ 90%
CC(SCCC(F)(F)F)c1ccc(Cl)cn1 (stereo not drawn) [present compound (6), 5-chloro-2-[1-(3,3,3-trifluoropropylsulfanyl)ethyl]pyridine]	≥ 95%	≥ 90%
FC(F)(F)CCSCc1ccc(Cl)cn1 [present compound (5), 5-chloro-2-(3,3,3-trifluoropropylsulfanylmethyl)pyridine]	–	≥ 90%
CC(c1ccc(C(F)(F)F)cn1)S(=O)(=O)CCC(F)(F)F (stereo not drawn) [present compound (9), 5-trifluoromethyl-2-[1-(3,3,3-trifluoropropanesulfonyl)ethyl]pyridine]	≥ 95%	≥ 90%
FC(F)(F)CCSCc1cnc(C(F)(F)F)nc1 [present compound (10), 2-trifluoromethyl-5-(3,3,3-trifluoropropylsulfanylmethyl)pyrimidine]	≥ 95%	≥ 90%
COC(=O)C(Cl)(c1ccc(C(F)(F)F)cn1)S(=O)(=O)CCC(F)(F)F (stereo not drawn) [present compound (14), methyl 2-chloro-2-(5-trifluoromethylpyridin-2-yl)-2-(3,3,3-trifluoropropylsulfonyl)acetate]	≥ 95%	≥ 90%
